Results reported in US12077503B2, “Substituted cyclic amides and their use as herbicides” (FMC CORPORATION, priority 2015, dated 2024).

Assays:
Format in all cases: in vivo
corn (Zea mays) [1] = test: Test G Pre-Emergence Protocol; conditions: Zea mays, pre-emergence, 312 h, evaluated after 13 days; for plant injury at 15.625 g/ha: 15.625 g ai/ha; for plant injury at 15.625 g/ha / plant injury at 250 g/ha: read-out: Corn damage rating (100=total damage to plant; 0=no damage to plant); for plant injury at 62.5 g/ha: 62.5 g ai/ha, 100=total damage to plant, 0=no damage to plant, read-out: plant damage rating, Corn; for plant injury at 250 g/ha: 250 g ai/ha
Description: (§1) Seeds of corn (Zea mays), giant foxtail (Setaria faberi), barnyardgrass (Echinochloa crus-galli), ivy-leaved morning glory (Ipomoea hederacea), redroot pigweed (Amaranthus retroflexus) and velvetleaf (Abutilon theophrasti) were sown in standard soil in pots. After cultivation for one day under controlled conditions in a glasshouse (at 24/16° C., day/night; 14 hours light; 65% humidity), the plants were sprayed with an aqueous spray solution derived from the formulation of the technical active ingredient in acetone/water (50:50) solution containing 0.5% Tween 20 (polyoxyethylene sorbitan monolaurate, CAS RN 9005-64-5) to give a final dose of 15.625, 62.5 or 250 g/ha of test compound.
(§2) The test plants were then grown on under controlled conditions in a glasshouse (at 24/16° C., day/night; 14 hours light; 65% humidity) and watered twice daily. After 13 days the test was evaluated (100=total damage to plant; 0=no damage to plant). A dash (-) means no test result.

[2] = test system: giant foxtail (Setaria faberi); test: Test G Pre-Emergence Protocol; conditions: Setaria faberi, pre-emergence, 312 h, evaluated after 13 days; for pest or weed control at 15.625 g/ha: 15.625 g ai/ha; for pest or weed control at 15.625 g/ha / pest or weed control at 250 g/ha: read-out: Foxtail, Giant damage rating (100=total damage to plant; 0=no damage to plant); for pest or weed control at 62.5 g/ha: 62.5 g ai/ha, 100=total damage to plant, 0=no damage to plant, read-out: plant damage rating, Foxtail, Giant; for pest or weed control at 250 g/ha: 250 g ai/ha
Description: as §1, §2

[3] = test system: velvetleaf (Abutilon theophrasti); test: Test G Pre-Emergence Protocol; conditions: Abutilon theophrasti, pre-emergence, 312 h, evaluated after 13 days; for pest or weed control at 15.625 g/ha: 15.625 g ai/ha; for pest or weed control at 15.625 g/ha / pest or weed control at 250 g/ha: read-out: Velvetleaf damage rating (100=total damage to plant; 0=no damage to plant); for pest or weed control at 62.5 g/ha: 62.5 g ai/ha, 100=total damage to plant, 0=no damage to plant, read-out: plant damage rating, Velvetleaf; for pest or weed control at 250 g/ha: 250 g ai/ha
Description: as §1, §2

[4] = test system: redroot pigweed (Amaranthus retroflexus); test: Test G Pre-Emergence Protocol; conditions: Amaranthus retroflexus, pre-emergence, 312 h, evaluated after 13 days; for pest or weed control at 15.625 g/ha: 15.625 g ai/ha; for pest or weed control at 15.625 g/ha / pest or weed control at 250 g/ha: read-out: Pigweed, Redroot damage rating (100=total damage to plant; 0=no damage to plant); for pest or weed control at 62.5 g/ha: 62.5 g ai/ha, 100=total damage to plant, 0=no damage to plant, read-out: plant damage rating, Pigweed, Redroot; for pest or weed control at 250 g/ha: 250 g ai/ha
Description: as §1, §2

[5] = test system: barnyardgrass (Echinochloa crus-galli); test: Test G Pre-Emergence Protocol; conditions: Echinochloa crus-galli, pre-emergence, 312 h, evaluated after 13 days; for pest or weed control at 15.625 g/ha: 15.625 g ai/ha, read-out: Barnyard grass damage rating (100=total damage to plant; 0=no damage to plant); for pest or weed control at 62.5 g/ha: 62.5 g ai/ha, 100=total damage to plant, 0=no damage to plant, read-out: plant damage rating, Barnyardgrass; for pest or weed control at 250 g/ha: 250 g ai/ha, read-out: Barnyardgrass damage rating (100=total damage to plant; 0=no damage to plant)
Description: as §1, §2

[6] = test system: ivy-leaved morning glory (Ipomoea hederacea); test: Test G Pre-Emergence Protocol; conditions: Ipomoea, pre-emergence, 312 h, evaluated after 13 days; for pest or weed control at 15.625 g/ha: 15.625 g ai/ha, read-out: Morning-glory, Ivy-leaved damage rating (100=total damage to plant; 0=no damage to plant); for pest or weed control at 62.5 g/ha: 62.5 g ai/ha, 100=total damage to plant, 0=no damage to plant, read-out: plant damage rating, Morningglory, Ivy-leaved; for pest or weed control at 250 g/ha: 250 g ai/ha, read-out: Morningglory, Ivy-leaved damage rating (100=total damage to plant; 0=no damage to plant)
Description: as §1, §2

corn (Zea mays) [7] = test: Test G Post-Emergence Protocol; conditions: Zea mays, post-emergence, 312 h; for plant injury at 15.625 g/ha: 15.625 g ai/ha, evaluated after 13 days (100=total damage to plant; 0=no damage to plant), read-out: Corn damage rating; for plant injury at 62.5 g/ha: 62.5 g ai/ha, read-out: Corn damage rating (100=total damage to plant; 0=no damage to plant); for plant injury at 62.5 g/ha / plant injury at 250 g/ha: evaluated after 13 days; for plant injury at 250 g/ha: 250 g ai/ha, read-out: damage to plant, Corn (100=total damage to plant; 0=no damage to plant)
Description: as §1, with “8 days” for “one day”
as §2

[8] = test system: giant foxtail (Setaria faberi); test: Test G Post-Emergence Protocol; conditions: Setaria faberi, post-emergence, 312 h; for pest or weed control at 15.625 g/ha: 15.625 g ai/ha, evaluated after 13 days (100=total damage to plant; 0=no damage to plant), read-out: Foxtail, Giant damage rating; for pest or weed control at 62.5 g/ha: 62.5 g ai/ha, read-out: Foxtail, Giant damage rating (100=total damage to plant; 0=no damage to plant); for pest or weed control at 62.5 g/ha / pest or weed control at 250 g/ha: evaluated after 13 days; for pest or weed control at 250 g/ha: 250 g ai/ha, read-out: damage to plant, Foxtail, Giant (100=total damage to plant; 0=no damage to plant)
Description: as §1, with “8 days” for “one day”
as §2

[9] = test system: velvetleaf (Abutilon theophrasti); test: Test G Post-Emergence Protocol; conditions: Abutilon theophrasti, post-emergence, 312 h; for pest or weed control at 15.625 g/ha: 15.625 g ai/ha, evaluated after 13 days (100=total damage to plant; 0=no damage to plant), read-out: Velvetleaf damage rating; for pest or weed control at 62.5 g/ha: 62.5 g ai/ha, read-out: Velvetleaf damage rating (100=total damage to plant; 0=no damage to plant); for pest or weed control at 62.5 g/ha / pest or weed control at 250 g/ha: evaluated after 13 days; for pest or weed control at 250 g/ha: 250 g ai/ha, read-out: damage to plant, Velvetleaf (100=total damage to plant; 0=no damage to plant)
Description: as §1, with “8 days” for “one day”
as §2

[10] = test system: redroot pigweed (Amaranthus retroflexus); test: Test G Post-Emergence Protocol; conditions: Amaranthus retroflexus, post-emergence, 312 h; for pest or weed control at 15.625 g/ha: 15.625 g ai/ha, evaluated after 13 days (100=total damage to plant; 0=no damage to plant), read-out: Pigweed, Redroot damage rating; for pest or weed control at 62.5 g/ha: 62.5 g ai/ha, read-out: Pigweed, Redroot damage rating (100=total damage to plant; 0=no damage to plant); for pest or weed control at 62.5 g/ha / pest or weed control at 250 g/ha: evaluated after 13 days; for pest or weed control at 250 g/ha: 250 g ai/ha, read-out: damage to plant, Pigweed, Redroot (100=total damage to plant; 0=no damage to plant)
Description: as §1, with “8 days” for “one day”
as §2

[11] = test system: barnyardgrass (Echinochloa crus-galli); test: Test G Post-Emergence Protocol; conditions: Echinochloa crus-galli, post-emergence, 312 h; for pest or weed control at 15.625 g/ha: 15.625 g ai/ha, evaluated after 13 days (100=total damage to plant; 0=no damage to plant), read-out: Barnyardgrass damage rating; for pest or weed control at 62.5 g/ha: 62.5 g ai/ha, read-out: Barnyardgrass damage rating (100=total damage to plant; 0=no damage to plant); for pest or weed control at 62.5 g/ha / pest or weed control at 250 g/ha: evaluated after 13 days; for pest or weed control at 250 g/ha: 250 g ai/ha, read-out: damage to plant, Barnyardgrass (100=total damage to plant; 0=no damage to plant)
Description: as §1, with “8 days” for “one day”
as §2

[12] = test system: ivy-leaved morning glory (Ipomoea hederacea); test: Test G Post-Emergence Protocol; conditions: Ipomoea, post-emergence, 312 h; for pest or weed control at 15.625 g/ha: 15.625 g ai/ha, evaluated after 13 days (100=total damage to plant; 0=no damage to plant), read-out: Morningglory, Ivy-leaved damage rating; for pest or weed control at 62.5 g/ha: 62.5 g ai/ha, read-out: Morningglory, Ivy-leaved damage rating (100=total damage to plant; 0=no damage to plant); for pest or weed control at 62.5 g/ha / pest or weed control at 250 g/ha: evaluated after 13 days; for pest or weed control at 250 g/ha: 250 g ai/ha, read-out: damage to plant, Morningglory, Ivy-leaved (100=total damage to plant; 0=no damage to plant)
Description: as §1, with “8 days” for “one day”
as §2

Structure (SMILES)	plant injury at 15.625 g/ha (corn (Zea mays) [1]) [%]	plant injury at 62.5 g/ha (corn (Zea mays) [1]) [%]	plant injury at 250 g/ha (corn (Zea mays) [1]) [%]	pest or weed control at 15.625 g/ha [2] [%]	pest or weed control at 62.5 g/ha [2] [%]	pest or weed control at 250 g/ha [2] [%]	pest or weed control at 15.625 g/ha [3] [%]	pest or weed control at 62.5 g/ha [3] [%]	pest or weed control at 250 g/ha [3] [%]	pest or weed control at 15.625 g/ha [4] [%]	pest or weed control at 62.5 g/ha [4] [%]	pest or weed control at 250 g/ha [4] [%]	pest or weed control at 15.625 g/ha [5] [%]	pest or weed control at 62.5 g/ha [5] [%]	pest or weed control at 250 g/ha [5] [%]	pest or weed control at 15.625 g/ha [6] [%]	pest or weed control at 62.5 g/ha [6] [%]	pest or weed control at 250 g/ha [6] [%]	plant injury at 15.625 g/ha (corn (Zea mays) [7]) [%]	plant injury at 62.5 g/ha (corn (Zea mays) [7]) [%]	also measured
CN1C[C@@H](c2ccc(C(F)(F)F)cc2)[C@@](O)(C(=O)Nc2cccc(F)c2F)C1=O (racemic) [Compound 1403]	0	0	0	0	0	0	0	0	0	0	0	0	0	0	0	0	0	0	10	10	plant injury at 250 g/ha (corn (Zea mays) [7]): 20%; pest or weed control at 15.625 g/ha [8]: 0%; pest or weed control at 62.5 g/ha [8]: 0%; pest or weed control at 250 g/ha [8]: 0%; pest or weed control at 15.625 g/ha [9]: 0%; pest or weed control at 62.5 g/ha [9]: 0%; pest or weed control at 250 g/ha [9]: 0%; pest or weed control at 15.625 g/ha [10]: 10%; pest or weed control at 62.5 g/ha [10]: 10%; pest or weed control at 250 g/ha [10]: 10%; pest or weed control at 15.625 g/ha [11]: 0%; pest or weed control at 62.5 g/ha [11]: 0%; pest or weed control at 250 g/ha [11]: 10%; pest or weed control at 15.625 g/ha [12]: 0%; pest or weed control at 62.5 g/ha [12]: 0%; pest or weed control at 250 g/ha [12]: 0%
Cc1ccc([C@H]2CN(C)C(=O)[C@@H]2C(=O)Nc2ccccc2F)cc1Cl (racemic) [Compound 1420]	0	50	70	70	80	80	0	0	0	0	0	0	60	70	80	0	0	0	10	40	plant injury at 250 g/ha (corn (Zea mays) [7]): 60%; pest or weed control at 15.625 g/ha [8]: 50%; pest or weed control at 62.5 g/ha [8]: 60%; pest or weed control at 250 g/ha [8]: 60%; pest or weed control at 15.625 g/ha [9]: 0%; pest or weed control at 62.5 g/ha [9]: 0%; pest or weed control at 250 g/ha [9]: 10%; pest or weed control at 15.625 g/ha [10]: 0%; pest or weed control at 62.5 g/ha [10]: 0%; pest or weed control at 250 g/ha [10]: 20%; pest or weed control at 15.625 g/ha [11]: 10%; pest or weed control at 62.5 g/ha [11]: 40%; pest or weed control at 250 g/ha [11]: 40%; pest or weed control at 15.625 g/ha [12]: 0%; pest or weed control at 62.5 g/ha [12]: 10%; pest or weed control at 250 g/ha [12]: 0%
